# The supplement of paper PMC10307832
# Key:
# Assay in all cases: relative viability (nuclei count vs DMSO), 5 days (fraction); higher = more cells survive
# [1] = system: NCI-H647
# Outline: (§1)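 Lung cancer cell lines in 1536-well plates were dosed by pin tool the day after seeding, either with one drug alone or with a fixed anchor-drug dose plus five library-drug doses (not always all listed) in √10 steps. After 5 days, cells were fixed and their nuclei stained in one step (final 0.05% Triton X-100, 1% formaldehyde, 1 ug/ml Hoechst), then counted on 4× images. Relative viability is the nuclei count in treated wells divided by that in vehicle wells. Values are medians of duplicate plates.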
# [2] = system: LC-2-ad
# Outline: as §1
# [3] = system: COR-L 105
# Outline: as §1
# [4] = system: H3255
# Outline: as §1
# [5] = system: NCI-H520
# Outline: as §1
# [6] = system: NCI-H522
# Outline: as §1
# [7] = system: NCI-H650
# Outline: as §1
# [8] = system: PC-14
# Outline: as §1
# [9] = system: RERF-LC-KJ
# Outline: as §1
# [10] = system: NCI-H322M
# Outline: as §1
# [11] = system: NCI-H2126
# Outline: as §1
# [12] = system: NCI-H2405
# Outline: as §1
# [13] = system: 201T
# Outline: as §1
# [14] = system: EPLC-272H
# Outline: as §1
# [15] = system: NCI-H23
# Outline: as §1
# [16] = system: NCI-H2347
# Outline: as §1
# [17] = system: NCI-H661
# Outline: as §1
# [18] = system: ChaGo-K-1
# Outline: as §1
# [19] = system: HCC-78
# Outline: as §1
# [20] = system: NCI-H2087
# Outline: as §1
# [21] = system: NCI-H1915
# Outline: as §1
# [22] = system: NCI-H1666
# Outline: as §1
# [23] = system: LCLC-97TM1
# Outline: as §1
# [24] = system: HCC-827
# Outline: as §1
smiles,measurement,setting,value
COc1cc(N2CCC(C(N)=O)CC2)ccc1Nc1nc(N)c(Cl)c(Nc2ccccc2S(=O)(=O)C(C)C)n1 [HG-5-88-01] + Nc1ncn([C@H]2C[C@H](O)[C@@H](CO)O2)c(=O)n1 [Decitabine] (partner 2 µM),relative viability,[1]; first compound 0.04 µM,0.375
same,relative viability,[1]; first compound 0.1265 µM,0.494
same,relative viability,[1]; first compound 1.265 µM,0.529
same,relative viability,[1]; first compound 4 µM,0.679
same,relative viability,[2]; first compound 0.04 µM,0.782
same,relative viability,[2]; first compound 0.1265 µM,0.719
same,relative viability,[2]; first compound 0.4 µM,0.771
same,relative viability,[2]; first compound 1.265 µM,0.814
same,relative viability,[2]; first compound 4 µM,0.855
same,relative viability,[3]; first compound 0.04 µM,0.569
same,relative viability,[3]; first compound 0.1265 µM,0.706
same,relative viability,[3]; first compound 0.4 µM,0.628
same,relative viability,[3]; first compound 1.265 µM,0.582
same,relative viability,[3]; first compound 4 µM,0.577
same,relative viability,[4]; first compound 0.04 µM,0.589
same,relative viability,[4]; first compound 0.1265 µM,0.629
same,relative viability,[4]; first compound 0.4 µM,0.568
same,relative viability,[4]; first compound 4 µM,0.574
same,relative viability,[5]; first compound 0.04 µM,0.483
same,relative viability,[5]; first compound 0.1265 µM,0.478
same,relative viability,[5]; first compound 0.4 µM,0.584
same,relative viability,[5]; first compound 1.265 µM,0.516
same,relative viability,[5]; first compound 4 µM,0.538
same,relative viability,[6]; first compound 0.04 µM,0.702
same,relative viability,[6]; first compound 0.1265 µM,0.773
same,relative viability,[6]; first compound 0.4 µM,0.69
same,relative viability,[6]; first compound 1.265 µM,0.687
same,relative viability,[6]; first compound 4 µM,0.649
same,relative viability,[7]; first compound 0.04 µM,0.357
same,relative viability,[7]; first compound 0.1265 µM,0.328
same,relative viability,[7]; first compound 0.4 µM,0.435
same,relative viability,[7]; first compound 1.265 µM,0.366
same,relative viability,[7]; first compound 4 µM,0.306
same,relative viability,[8]; first compound 0.04 µM,0.215
same,relative viability,[8]; first compound 0.1265 µM,0.231
same,relative viability,[8]; first compound 0.4 µM,0.235
same,relative viability,[8]; first compound 1.265 µM,0.206
same,relative viability,[8]; first compound 4 µM,0.0628
same,relative viability,[9]; first compound 0.04 µM,0.736
same,relative viability,[9]; first compound 0.1265 µM,0.737
same,relative viability,[9]; first compound 0.4 µM,0.7
same,relative viability,[9]; first compound 1.265 µM,0.781
same,relative viability,[9]; first compound 4 µM,0.528
same,relative viability,[10]; first compound 0.04 µM,0.693
same,relative viability,[10]; first compound 0.1265 µM,0.68
same,relative viability,[10]; first compound 0.4 µM,0.781
same,relative viability,[10]; first compound 1.265 µM,0.483
same,relative viability,[10]; first compound 4 µM,0.706
same,relative viability,[11]; first compound 0.04 µM,0.603
same,relative viability,[11]; first compound 0.1265 µM,0.586
same,relative viability,[11]; first compound 0.4 µM,0.568
same,relative viability,[11]; first compound 1.265 µM,0.6
same,relative viability,[11]; first compound 4 µM,0.556
same,relative viability,[12]; first compound 0.04 µM,0.67
same,relative viability,[12]; first compound 0.1265 µM,0.754
same,relative viability,[12]; first compound 0.4 µM,0.783
same,relative viability,[12]; first compound 1.265 µM,0.624
same,relative viability,[12]; first compound 4 µM,0.672
same,relative viability,[13]; first compound 0.04 µM,0.856
same,relative viability,[13]; first compound 0.1265 µM,0.864
same,relative viability,[13]; first compound 1.265 µM,0.852
same,relative viability,[13]; first compound 4 µM,0.891
same,relative viability,[14]; first compound 0.04 µM,0.32
same,relative viability,[14]; first compound 0.1265 µM,0.371
same,relative viability,[14]; first compound 0.4 µM,0.47
same,relative viability,[14]; first compound 1.265 µM,0.266
same,relative viability,[14]; first compound 4 µM,0.117
same,relative viability,[15]; first compound 0.04 µM,0.365
same,relative viability,[15]; first compound 0.1265 µM,0.331
same,relative viability,[15]; first compound 0.4 µM,0.327
same,relative viability,[15]; first compound 1.265 µM,0.282
same,relative viability,[15]; first compound 4 µM,0.329
same,relative viability,[16]; first compound 0.04 µM,0.632
same,relative viability,[16]; first compound 0.1265 µM,0.637
same,relative viability,[16]; first compound 0.4 µM,0.729
same,relative viability,[16]; first compound 1.265 µM,0.672
same,relative viability,[16]; first compound 4 µM,0.645
same,relative viability,[17]; first compound 0.04 µM,0.54
same,relative viability,[17]; first compound 0.1265 µM,0.595
same,relative viability,[17]; first compound 0.4 µM,0.653
same,relative viability,[17]; first compound 1.265 µM,0.515
same,relative viability,[17]; first compound 4 µM,0.56
same,relative viability,[18]; first compound 0.04 µM,0.524
same,relative viability,[18]; first compound 0.1265 µM,0.515
same,relative viability,[18]; first compound 0.4 µM,0.51
same,relative viability,[18]; first compound 1.265 µM,0.542
same,relative viability,[18]; first compound 4 µM,0.552
same,relative viability,[19]; first compound 0.04 µM,0.696
same,relative viability,[19]; first compound 0.1265 µM,0.598
same,relative viability,[19]; first compound 0.4 µM,0.62
same,relative viability,[19]; first compound 1.265 µM,0.411
same,relative viability,[19]; first compound 4 µM,0.432
same,relative viability,[20]; first compound 0.04 µM,0.315
same,relative viability,[20]; first compound 0.1265 µM,0.365
same,relative viability,[20]; first compound 0.4 µM,0.325
same,relative viability,[20]; first compound 1.265 µM,0.246
same,relative viability,[20]; first compound 4 µM,0.242
same,relative viability,[21]; first compound 0.04 µM,0.254
same,relative viability,[21]; first compound 0.1265 µM,0.279
same,relative viability,[21]; first compound 0.4 µM,0.275
same,relative viability,[21]; first compound 1.265 µM,0.248
same,relative viability,[21]; first compound 4 µM,0.254
same,relative viability,[22]; first compound 0.04 µM,0.66
same,relative viability,[22]; first compound 0.1265 µM,0.743
same,relative viability,[22]; first compound 0.4 µM,0.779
same,relative viability,[22]; first compound 1.265 µM,0.622
same,relative viability,[22]; first compound 4 µM,0.566
same,relative viability,[23]; first compound 0.04 µM,0.21
same,relative viability,[23]; first compound 0.1265 µM,0.219
same,relative viability,[23]; first compound 0.4 µM,0.209
same,relative viability,[23]; first compound 1.265 µM,0.229
same,relative viability,[23]; first compound 4 µM,0.128
same,relative viability,[24]; first compound 0.04 µM,0.292
same,relative viability,[24]; first compound 0.1265 µM,0.304
same,relative viability,[24]; first compound 0.4 µM,0.354
same,relative viability,[24]; first compound 1.265 µM,0.19
same,relative viability,[24]; first compound 4 µM,0.209
